Consider ten compounds from PubChem BioAssay (NCI).

“And” between values parts separate entries of the source, which are not always exact repeats. Identical values can stand only once.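 Cells were grown in 96-well plates and exposed to each compound for 48 hours at five concentrations; endpoints were interpolated linearly between bracketing concentrations, or set to the highest concentration if not reached. At the GI50, growth is halved. The concentration for full growth arrest is given as TGI.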

What all share (experiment): growth of human tumour cells (NCI), 48 h
Experiment [1] has as its system OVCAR-5 ovarian.
Experiment [2] has as its system K-562 leukemia.
In experiment [3] the test system is NCI-H226 lung.
The subject of experiment [4] is RPMI-8226 leukemia.
Experiment [5] deals with SK-OV-3 ovarian.
Experiment [6] relates to HT29 colon.
Experiment [7] has as its system RXF 393 renal.

With `CN(C)c1ccc2cc(-c3cc4c(oc3=O)-c3ccccc3OC4O)c(=O)oc2c1` (configuration not stated), the GI50 is 5.35 µM in experiment [1]; 5.2 µM in experiment [2]; 3.28 µM in experiment [3]; 0.439 µM in experiment [4]; 5.96 µM in experiment [5]; 5.73 µM in experiment [6]. In experiment [7], the GI50 is 2.69 µM. Besides, the TGI in experiment [1] was 12.8 µM; in experiment [2], greater than 25 µM; in experiment [3], 7.08 µM; in experiment [4] it was 4.71 µM; in experiment [5], 19.8 µM; in experiment [6], 21.8 µM. Further, the TGI in experiment [7] turned out to be 6.53 µM.

For `N#Cc1nn(C2OC(COC(=O)c3ccccc3)C(OC(=O)c3ccccc3)C2OC(=O)c2ccccc2)c2nc[nH]c(=O)c12` (configuration not stated), the TGI in experiment [1], in experiment [2], in experiment [3], in experiment [4], in experiment [5] and in experiment [6] was greater than 100 µM in each case. Moreover, the TGI in experiment [7] was greater than 100 µM.

`Cc1cccc2c1NC(=O)[C@@]21[C@H](C(=O)c2ccccc2)[C@]2(C(=O)Nc3ccccc32)[C@H]2CCCN21`: the GI50 in experiment [1] was greater than 100 µM; in experiment [2], 33.1 µM; in experiment [3], 27.1 µM; in experiment [4] it was greater than 100 µM; in experiment [5], 43.3 µM; in experiment [6] it was 37.3 µM. Besides, the GI50 in experiment [7] is 13.5 µM. The TGI in experiment [1], in experiment [2], in experiment [3], in experiment [4], in experiment [5] and in experiment [6] was greater than 100 µM in each case. For the same compound, in experiment [7], the TGI came to 47.5 µM.

In the case of `COc1ccc(-c2nc(N)c3ncn(C4OC(CO)C(O)C4O)c3n2)cc1` (configuration not stated), the TGI in experiment [1], in experiment [2], in experiment [3], in experiment [4], in experiment [5] and in experiment [6] was greater than 100 µM throughout. This compound displayed a TGI in experiment [7] greater than 100 µM.

`N/C(=N\c1nc2ccccc2s1)NC(=O)Nc1ccccc1Cl`: the GI50 is 0.379 µM in experiment [1]; 0.0366 µM in experiment [2]; 0.429 µM in experiment [3]; 0.144 µM in experiment [4]; 0.643 µM in experiment [5]; 0.105 µM in experiment [6]. Further, the GI50 in experiment [7] is 0.0983 µM. Also, the TGI in experiment [1] was 26.8 µM; in experiment [2], greater than 43.5 µM; in experiment [3] it was 19.2 µM; in experiment [4] it was 9.28 µM; in experiment [5], 25.3 µM; in experiment [6] it was 6.31 µM. This compound showed a TGI in experiment [7] of 1.56 µM.

`N=C1C(c2nc3ccccc3s2)=C(O)CN1c1ccc(Cl)cc1Cl`: the GI50 in experiment [1] is 34.8 µM; in experiment [2] it was 10.7 µM; in experiment [3], 16.9 µM; in experiment [4], 18.9 µM; in experiment [5], 32.2 µM; in experiment [6], 16.4 µM. Moreover, the GI50 in experiment [7] is 10.8 µM. In addition, the TGI in experiment [1] is greater than 100 µM; in experiment [2] it was 64.5 µM; in experiment [3] it was 40.7 µM; in experiment [4] it was 62.1 µM; in experiment [5], greater than 100 µM; in experiment [6] it was greater than 100 µM. The compound also showed a TGI in experiment [7] of 36.1 µM.

Regarding `COc1cc2c(Nc3ccc(Br)cc3F)ncnc2cc1OCC1CCN(C)CC1`, the GI50 in experiment [1] was 2.65 µM and 3.23 µM; in experiment [2] it was 0.436 µM and 0.651 µM; in experiment [3], 5.23 µM and > 10 µM; in experiment [4] it was 3.33 µM and 6.84 µM; in experiment [5], 1.2 µM and 1.67 µM; in experiment [6], 2.38 µM and 3.39 µM. Moreover, the GI50 in experiment [7] was 1.44 µM and 1.29 µM. Moreover, the TGI was 18.7 µM and > 10 µM in experiment [1]; 11.8 µM and > 10 µM in experiment [2]; 18.8 µM and > 10 µM in experiment [3]; 14 µM and > 10 µM in experiment [4]; 7.06 µM and > 10 µM in experiment [5]; 10.8 µM and > 10 µM in experiment [6]. Also, the TGI in experiment [7] was 4.77 µM and 8.32 µM.

As to `CNC(=O)c1cncc(/C=C/c2c(C)cccc2C)c1`, the GI50 in experiment [1] is greater than 25 µM; in experiment [2], greater than 22.3 µM; in experiment [3] it was greater than 25 µM; in experiment [4], greater than 25 µM; in experiment [5], greater than 25 µM; in experiment [6], 16.2 µM. Also, the GI50 in experiment [7] was 13.4 µM. Further, the TGI in experiment [1], in experiment [2], in experiment [3], in experiment [4], in experiment [5] and in experiment [6] was greater than 25 µM in each case. In experiment [7], this compound returned a TGI greater than 25 µM.

`NCC1OC(n2cnc3c(=O)[nH]c(N)nc32)C(O)C1O` (configuration not stated): the TGI in experiment [1] is greater than 100 µM; in experiment [2], greater than 100 µM; in experiment [3], greater than 100 µM; in experiment [4] it was greater than 63.8 µM; in experiment [5] it was greater than 100 µM; in experiment [6], greater than 100 µM. Further, in experiment [7], the TGI is greater than 100 µM.

As for `COc1ccc(C(=O)C(Br)C(Br)C(=O)O)cc1` (configuration not stated), the TGI is greater than 100 µM in experiment [1]; 82.9 µM in experiment [2]; greater than 100 µM in experiment [3]; 53.2 µM in experiment [4]; greater than 100 µM in experiment [5]; 31 µM in experiment [6]. In experiment [7], this compound returned a TGI of 56.4 µM.
